# Data reported in US20200377485A1, “HYDANTOIN MODULATORS OF KV3 CHANNELS” (AUTIFONY THERAPEUTICS LIMITED, priority 2015, published 2020).
# What was measured:
# [1] = test system: rat model of neuropathic pain; experiment: Neuropathic pain model, partial ligation of the sciatic nerve, paw withdrawal threshold to mechanical force; assay type: in vivo
# Description: (§1) Subjects comprised male, Wistar Hanover rats, 6 animals per group (225±2 g).
# (§2) Vehicle (12% Captisol®; 0.5% w/v HPMC and 0.1% w/v Tween-80; 5 ml/kg via the intraperitoneal route) was prepared using autoclaved deionized water not more than one week prior to use.
# The control for the neuropathic pain model was lamotrigine, administered at 30 mg/kg via oral delivery. The control for the inflammatory pain model was diclofenac, administered at 30 mg/kg via oral delivery. Statistical analysis was performed using one-way ANOVA, and comparisons were performed with time-matched vehicle group using Tukey's HSD test wherein * p<0.05, ** p<0.01, *** p<0.001. […]
# Withdrawal thresholds were measured on both the ipsilateral (ligated) and contralateral (non-ligated) paws, prior to (predose) and then up to 24 h following drug or vehicle administration.
# Pre-dose behavioural measurements were obtained by measuring paw withdrawals 14 days following nerve ligation; before the initiation of drug treatment. Following treatment, further readings were taken at 1, 3, 6 and 24 hour after administration. […]
# Data were expressed as withdrawal threshold (g) and percentage reversals calculated according to the following formula: […]
# Statistical analysis was carried out on withdrawal threshold readings using ANOVA with repeated measures followed by Tukey's HSD test. […]
# [2] = test system: rat model of persistent inflammatory pain; experiment: Persistent inflammatory pain model, intraplantar Freund's Complete Adjuvant, paw withdrawal threshold to mechanical force; assay type: in vivo
# Description: as §1, §2
# The control for the neuropathic pain model was lamotrigine, administered at 30 mg/kg via oral delivery. The control for the inflammatory pain model was diclofenac, administered at 30 mg/kg via oral delivery. Statistical analysis was performed using one-way ANOVA, and comparisons were performed with time-matched vehicle group using Tukey's HSD test wherein * p<0.05, ** p<0.01, *** p<0.001.
# Mechanical hyperalgesia was examined in a model of persistent inflammatory pain. […]
# To assess the effect of the test compound, paw withdrawal thresholds were measured on both the ipsilateral (FCA-injected) and contralateral (non-injected) paws, prior to (naïve) and 24 h following FCA injection (predose), and then at 1, 3, 6 and 24 h after drug or vehicle administration.
# Mechanical hyperalgesia was examined in a model of neuropathic pain by measuring paw withdrawal thresholds (PWT) to increasing mechanical force applied to the dorsal surface of the rat paw using an Analgesymeter (Ugo-Basile, Milan) equipped with a wedge-shaped probe (area 1.75 mm^2). […] Both ipsilateral and contralateral paw withdrawal readings were taken. […]
# [3] = General observations of behaviour during the pain studies; assay type: in vivo, rat; settings: acute administration, 10-60 mg/kg i.p., neuropathic and inflammatory pain models
# From the text: In addition to behavioural pain readings, each rat was observed throughout the study for changes in general behaviour.
# [4] = target: T1, human Kv3.2 channels (hKv3.2) (Homo sapiens, UniProt Q96PR1); experiment: IonWorks Quattro electrophysiology, hKv3.2 stable CHO-K1 cell line (potentiation; secondary analysis of activation time Tauact); assay type: cell-based; settings: -15 mV depolarising step; concentration chosen to give ~0.3 nA at end of pulse: RE1 6.25, RE3 0.2, RE9 0.2, Example 1 0.8 μM; vehicle 7.1 ms
# T1 construct: expressed in transfected cells
# T1 sequence (Q96PR1 1-638): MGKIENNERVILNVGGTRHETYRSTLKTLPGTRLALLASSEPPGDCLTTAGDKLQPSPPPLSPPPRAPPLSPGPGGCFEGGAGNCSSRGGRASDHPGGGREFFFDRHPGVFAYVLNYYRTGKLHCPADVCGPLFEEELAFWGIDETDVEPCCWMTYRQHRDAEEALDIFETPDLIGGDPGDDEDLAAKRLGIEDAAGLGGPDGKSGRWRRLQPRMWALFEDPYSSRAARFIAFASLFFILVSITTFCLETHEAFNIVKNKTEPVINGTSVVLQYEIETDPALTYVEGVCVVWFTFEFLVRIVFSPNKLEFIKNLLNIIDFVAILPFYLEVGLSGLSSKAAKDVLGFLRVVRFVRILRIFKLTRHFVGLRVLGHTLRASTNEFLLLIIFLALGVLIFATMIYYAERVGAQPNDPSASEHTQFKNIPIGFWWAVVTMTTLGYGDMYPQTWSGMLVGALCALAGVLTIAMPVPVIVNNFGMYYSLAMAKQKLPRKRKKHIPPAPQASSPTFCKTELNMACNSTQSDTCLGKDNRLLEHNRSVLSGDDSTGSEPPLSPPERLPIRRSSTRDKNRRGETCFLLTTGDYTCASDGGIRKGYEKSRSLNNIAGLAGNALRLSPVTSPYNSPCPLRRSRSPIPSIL
# Description: The ability of the compounds of the invention to modulate the voltage-gated potassium channel subtypes Kv3.2 or Kv3.1 may be determined using the following assay.
# To assess compound effects on human Kv3.2 channels (hKv3.2), a stable cell line expressing hKv3.2 was created by transfecting Chinese Hamster Ovary (CHO)-K1 cells with a pClH5-hKv3.2 vector. Cells were cultured in DMEM/F12 medium supplemented by 10% Foetal Bovine Serum, lx non-essential amino acids (Invitrogen) and 500 ug/ml of Hygromycin-B (Invitrogen). Cells were grown and maintained at 37° C. in a humidified environment containing 5% CO2 in air.
# The day of the experiment, cells were removed from the incubator and the culture medium removed. Cells were washed with 5 ml of Dulbecco's PBS (DPBS) calcium and magnesium free and detached by the addition of 3 ml Versene (Invitrogen, Italy) followed by a brief incubation at 37° C. for 5 minutes. The flask was tapped to dislodge cells and 10 ml of DPBS containing calcium and magnesium was added to prepare a cell suspension. The cell suspension was then placed into a 15 ml centrifuge tube and centrifuged for 2 min at 1200 rpm. […]
# Experiments were conducted at room temperature using IonWorks Quattro™ planar array electrophysiology technology (Molecular Devices Corp.) with PatchPlate™ PPC. […] Planar electrode hole resistances (Rp) were determined by applying a 10 mV voltage step across each well. […] Test pulses protocol may be performed in the absence (pre-read) and presence (post-read) of the test compound. Pre- and post-reads may be separated by the compound addition followed by a 3 minute incubation. […]
# The recordings were analysed and filtered using both seal resistance (>20 MΩ) and peak current amplitude (>500 pA at the voltage step of 40 mV) in the absence of compound to eliminate unsuitable cells from further analysis. Paired comparisons between pre- and post-drug additions measured for the −15 mV voltage step were used to determine the positive modulation effect of each compound. […]
smiles,measurement,setting,value
"Cc1ccc(Oc2ncc(N3C(=O)NC(C)(C)C3=O)cn2)c2c1OCC21CC1 [Compound X, 5,5-dimethyl-3-[2-(7-methylspiro[2H-benzofuran-3,1-cyclopropane]-4-yl)oxypyrimidin-5-yl]imidazolidine-2,4-dione]","reversal of mechanical sensitivity, in words","[1]; 10, 30, 60 mg/kg i.p.",dose-related reversal of mechanical sensitivity with rapid onset and long duration of action
same,"reversal of mechanical sensitivity, in words","[2]; 10, 30, 60 mg/kg i.p.",dose-related reversal of mechanical sensitivity with rapid onset of action
same,changes in normal (general) behaviour,[3],without causing significant changes in normal behaviour
"CC[C@@]1(C)NC(=O)N(c2ccc(Oc3ccc(C)c4c3C3(CC3)CO4)cn2)C1=O [Example 1, (5R)-5-ethyl-5-methyl-3-[5-(7-methylspiro[2H-benzofuran-3,1′-cyclopropane]-4-yl)oxy-2-pyridyl]imidazolidine-2,4-dione]",Tauact mean (activation time constant of hKv3.2 current),[4],18.2 ms
"CC[C@H]1NC(=O)N(c2ccc(Oc3ccc(C)c(OC)c3)nc2)C1=O [RE1, (5R)-5-ethyl-3-(6-{[4-methyl-3-(methyloxy)phenyl]oxy}-3-pyridinyl)-2,4-imidazolidinedione]",Tauact mean (activation time constant of hKv3.2 current),[4],9.9 ms
"CC[C@H]1NC(=O)N(c2ccc(Oc3ccc(C#N)cc3C(C)(C)C)nc2)C1=O [RE3, 3-(1,1-dimethylethyl)-4-({5-[(4R)-4-ethyl-2,5-dioxo-1-imidazolidinyl]-2-pyridinyl}oxy)benzonitrile]",Tauact mean (activation time constant of hKv3.2 current),[4],23.0 ms
O=C(O)Cc1ccccc1Nc1c(Cl)cccc1Cl [diclofenac],peak reversal of mechanical sensitivity (positive control),"[2]; 30 mg/kg oral, 1 h post-dose",64%
Nc1nnc(-c2cccc(Cl)c2Cl)c(N)n1 [lamotrigine],peak reversal of mechanical sensitivity (positive control),"[1]; 30 mg/kg oral, 3 h post-dose",67%
